Legend:
p-STAT3 = p-STAT3 western blotting in F11-derived neurons; assay type: cell-based; conditions: 24 h
Description: Following neuronal differentiation, neurons were treated for 24 h with DF2726A (1 μM final concentration), oxaliplatin (Sigma-Aldrich; 20 µM final concentration), or the combination of the two molecules.
Control and treated cells were collected and lysed in ice-cold RIPA buffer (PBS pH 7.4 containing 0.5% sodium deoxycolate, 1% Igepal, 0.1% SDS, 5 mM EDTA, 1% protease and phosphatase inhibitor cocktails; Sigma-Aldrich) as described in[22],[33]. Protein lysates (30 μg) were separated on 8–12% SDS-polyacrilamide gel and electroblotted onto polyvinyldifluoride membrane (PVDF; Sigma-Aldrich). Nonspecific binding sites were blocked by 5% non-fat dry milk (Bio-Rad Laboratories, Hercules, CA, USA) in Tris buffered saline (TBS: 20 mM Tris- HCl, pH 7.4, containing 150 mM NaCl) for 30 min at RT. […] The relative densities of immunoreactive bands were determined and normalized HRP-conjugated β-actin, using ImageJ software. […]

acetylated α-tubulin = experiment: Acetylated α-tubulin immunofluorescence of nerve fibres in paw sections of oxaliplatin rats; assay type: in vivo, male Wistar rats; conditions: 30 mg/kg os, rat paw sections
Description: Animals were sacrificed and a biopsy (3 mm) was taken from pad of the right hind paw. Biopsies were immediately placed in Zamboni’s fixative, where they were left at 4 °C. Tissues were then transferred to 20% sucrose for at least 24 h and used for immunohistochemistry analysis. Specimens were frozen in Optimal Cutting Temperature compound (OCT, Sakura Finetek Inc, CA, USA) and sliced into 20 μm thick serial coronal sections by cryostat AMES LAB-TEK (Westmont, Illinois, USA).
In brief, sections were blocked with phosphate buffer saline (PBS) containing 10% (Bovine Serum Albumin) and 0.3% Tween-20, for 1 h at RT and incubated, overnight at 4 °C, with the primary antibodies: IL-8 (mouse, 1:25, R&D Systems Inc. Minneapolis, MN, USA), PGP9.5 (rabbit, 1:1000, AbD Serotec, NC, USA), acetylated alpha tubulin (mouse, 1:250, Abcam Cambridge, MA, USA) and collagen IV (goat, 1:25, Southern Biotech, Birmingham, AL, USA). Sections were then rinsed in PBS several times before incubation for 2 h at RT with secondary antibodies, donkey AlexaFluor 488 anti-rabbit or donkey AlexaFluor 633 (1:2000), goat anti-mouse conjugated with Alexafluor 488 (1:2000; Life Technologies, Camarillo, CA, USA). […]

P-glycoprotein (P-gp) = target: T1, P-glycoprotein (P-gp) (Homo sapiens, UniProt P08183); experiment: P-gp inhibition (Caco-2 cell assay); assay type: in vitro ADME
T1 construct: endogenous in cells; host or cells: Caco-2
T1 sequence (P08183 whole entry): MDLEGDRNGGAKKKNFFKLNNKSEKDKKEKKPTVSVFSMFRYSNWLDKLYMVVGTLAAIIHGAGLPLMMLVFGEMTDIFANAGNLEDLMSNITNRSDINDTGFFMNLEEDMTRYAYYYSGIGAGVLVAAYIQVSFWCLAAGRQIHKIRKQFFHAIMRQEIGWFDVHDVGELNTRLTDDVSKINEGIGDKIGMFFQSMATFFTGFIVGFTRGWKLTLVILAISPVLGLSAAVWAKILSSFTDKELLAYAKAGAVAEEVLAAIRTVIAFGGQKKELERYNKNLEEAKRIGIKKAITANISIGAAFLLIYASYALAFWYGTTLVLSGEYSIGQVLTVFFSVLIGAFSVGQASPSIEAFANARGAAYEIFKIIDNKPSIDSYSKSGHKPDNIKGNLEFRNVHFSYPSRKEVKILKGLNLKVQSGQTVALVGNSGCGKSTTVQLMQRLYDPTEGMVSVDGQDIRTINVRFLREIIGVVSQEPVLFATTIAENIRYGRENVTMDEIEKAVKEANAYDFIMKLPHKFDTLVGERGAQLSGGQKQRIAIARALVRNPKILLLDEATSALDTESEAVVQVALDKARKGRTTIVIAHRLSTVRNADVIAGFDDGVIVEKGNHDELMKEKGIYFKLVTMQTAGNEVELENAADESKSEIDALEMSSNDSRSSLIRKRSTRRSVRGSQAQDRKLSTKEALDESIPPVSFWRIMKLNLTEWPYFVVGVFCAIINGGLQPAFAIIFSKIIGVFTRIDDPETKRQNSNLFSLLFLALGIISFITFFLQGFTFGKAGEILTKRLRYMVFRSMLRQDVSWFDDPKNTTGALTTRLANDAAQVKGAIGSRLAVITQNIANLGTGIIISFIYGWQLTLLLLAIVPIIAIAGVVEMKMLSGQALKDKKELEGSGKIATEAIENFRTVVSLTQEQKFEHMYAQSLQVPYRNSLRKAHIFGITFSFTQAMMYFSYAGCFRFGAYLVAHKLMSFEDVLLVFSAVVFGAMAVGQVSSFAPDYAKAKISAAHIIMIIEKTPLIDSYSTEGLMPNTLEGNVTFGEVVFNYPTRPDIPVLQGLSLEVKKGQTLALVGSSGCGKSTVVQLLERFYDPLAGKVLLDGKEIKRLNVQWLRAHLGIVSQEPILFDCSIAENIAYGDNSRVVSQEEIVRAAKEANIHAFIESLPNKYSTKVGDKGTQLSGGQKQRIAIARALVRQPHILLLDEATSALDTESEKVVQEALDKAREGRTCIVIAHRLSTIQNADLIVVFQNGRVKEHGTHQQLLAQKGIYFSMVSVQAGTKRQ

SMILES: CC(C)(C(=O)O)c1ccc(Nc2nc(C(F)(F)F)cs2)cc1 [DF2726A]
- p-STAT3 levels, oxaliplatin-treated neurons (p-STAT3; DF2726A 1 µM + oxaliplatin 20 µM): counteracted this effect
- p-STAT3 levels, paclitaxel-treated neurons (p-STAT3; DF2726A + paclitaxel 10 nM): counteracted this effect
- Acetylated α-tubulin levels in nerve fibres of oxaliplatin rats (acetylated α-tubulin): completely restored control conditions
- P-glycoprotein (P-gp) inhibition (P-glycoprotein (P-gp)): no P-glycoprotein (P-gp) inhibition

Source: paper PMC6692352, “DF2726A, a new IL-8 signalling inhibitor, is able to counteract chemotherapy-induced neuropathic pain” (Scientific Reports, 2019)
